Data on 1 compound can be found in patent US9585862B2, “Patch containing rivastigmine” (priority 2011, dated 2017).

The nature of the data set: Compatibility test of adhesives mixed with rivastigmine free base (appearance, miscibility, total impurity). The class given is physicochemical. From the text: In order to adopt a suitable adhesive for preparing a rivastigmine patch, each of various adhesives was mixed with rivastigmine free base to confirm the appearance, miscibility and compatibility thereof.
For a compatibility test, ten adhesives were used as a candidate material, considering the kind of a polymer and functional group present in the composition of each adhesive, the presence of a crosslinker and a solvent present in the composition. Details of the ten adhesives are shown in Table 2, wherein each product listed under the column “Product name” is an adhesive sold under the respective listed trademark.
Specifically, adhesives containing an acryl- or acrylate-vinylate-based polymer and having no functional group or a hydroxyl or carboxyl group were used. Also, the presence of a crosslinker in the adhesives was evaluated as an important factor to show a compatibility difference. The appearance and miscibility of each adhesive are shown in Table 3, wherein each “Durotak” listed under the column “Ingredient” is a different adhesive sold under the respective trademark.
For example, in the case that the adhesive sold under the trademark DUROTAK 87-202A was used, the color changed to yellow, while in the cases that the adhesives sold under the trademarks DUROTAK 87-2852, 87-2516 and 87-2052 were used, the color changed to brown. The adhesives undergoing a significant color change were commonly confirmed to have a crosslinker.

With `CCN(C)C(=O)Oc1cccc([C@H](C)N(C)C)c1` [Rivastigmine base, (S)-N-ethyl-3-[(1-dimethylamino)ethyl]-N-methyl-phenyl-carbamate], the “Miscibility 2 wks” value (active ingredient with adhesive, 2 wks) is “◯”. The “Miscibility Initial” value (active ingredient with adhesive, initial) is given as “◯”. Also, the “Total impurity (% impurity) 2 wks” value (rivastigmine base alone or mixed with adhesive, 2 wks) is on record as 0.07%. Further, the “Total impurity (% impurity) Initial” value (rivastigmine base alone or mixed with adhesive, initial) came to 0.03%.
